US20100197602A1, “USE OF FOLLICULAR GONADOTROPIN RELEASING PEPTIDE AS A THERAPEUTIC AGENT IN THE TREATMENT OF STREPTOCOCCUS PNEUMONIAE INFECTION” (priority 2007, published 2010)
Residues, ends and D or L forms follow the SMILES beside them.

Legend:
HIV-1IIIB = assay: HIV-1 antiviral assay (CPE reduction, MTS); type: cell-based; conditions: peptide 10 micrograms per ml, 6 days post-infection
in vitro [1] = conditions: human, MRC-5 cells (human embryonal lung fibroblasts)
MRSA = conditions: 5 micrograms per ml
Pseudomonas aeruginosa = type: cell-based; conditions: 5 micrograms per ml
[2] = Cell viability in HepG2-2.2.15 cells (dye uptake) of the HBV assay; conditions: human
in vitro [3] = conditions: human, CEM-SS cells
Streptococcus pneumoniae = type: cell-based; conditions: 5 micrograms per ml
HCMV strain AD169 = assay: HCMV plaque reduction assay; type: cell-based; conditions: HCMV AD169 in MRC-5 cells; peptide 10 micrograms per ml; 7-10 days
Text: Ganciclovir was used as positive control.

**Q.** With `Cc1cn([C@H]2C[C@H](N=[N+]=[N-])[C@@H](CO)O2)c(=O)[nH]c1=O` [AZT] as the compound, how does the “% CPE reduction in HIV-1 infected CEM-SS cells” value (HIV-1IIIB) read?
**A.** The value was 99%.

**Q.** For `C[C@@H](O)[C@H](N)C(=O)N[C@@H](CC(=O)O)C(=O)N[C@H](C(=O)N[C@@H](CO)C(=O)N[C@@H](Cc1c[nH]cn1)C(=O)N[C@@H](Cc1c[nH]cn1)C(=O)N[C@@H](CC(=O)O)C(=O)N[C@@H](CCC(N)=O)C(=O)N[C@@H](CC(=O)O)C(=O)N[C@@H](Cc1c[nH]cn1)C(=O)N1CCC[C@H]1C(=O)N[C@H](C(=O)N[C@@H](Cc1ccccc1)C(=O)N[C@@H](CC(N)=O)C(=O)O)[C@@H](C)O)[C@@H](C)O` [FGRP, Thr-Asp-Thr-Ser-His-His-Asp-Gln-Asp-His-Pro-Thr-Phe-Asn-OH] (H-TDTSHHDQDHPTFN-OH), which viability at 144 h (in vitro [1]) is on record?
**A.** The viability at 144 h was 100%.

**Q.** What about the “% inhibition” value (MRSA) of the same compound?
**A.** The value was 0.0%.

**Q.** What about the “% inhibition” value (Pseudomonas aeruginosa) of the same compound?
**A.** The value was 0.0%.

**Q.** What about the viability at 144 h, 10 micrograms per ml [2] of the same compound?
**A.** The viability at 144 h, 10 micrograms per ml was 100%.

**Q.** And the viability at 10 micrograms per ml (in vitro [3])?
**A.** The viability at 10 micrograms per ml was 100%.

**Q.** What about the “% inhibition” value (Streptococcus pneumoniae) of the same compound?
**A.** Its value is 100.0%.

**Q.** For `Nc1nc(O)c2ncn(COC(CO)CO)c2n1` [Ganciclovir], which “% plaque reduction” value (HCMV strain AD169) is on record?
**A.** The value was 100%.
